{"source": "patent US7375058B2", "about": "“Herbicidal mixtures based on 3-phenyluracils” (priority 2002, dated 2008)", "key": {"BIDPI": {"tested_on": "BIDPI", "assay": "Greenhouse post-emergence herbicidal action against BIDPI", "format": "in vivo, Bidens pilosa", "from_the_text": "(§1) For the post-emergence treatment, the test plants were first grown to a height of 3 to 20 cm, depending on the plant habit, and only then treated. Here, the herbicidal compositions were suspended or emulsified in water as distribution medium and sprayed using finely distributing nozzles\n(§2) The respective components A and B and/or C were formulated as 10% by weight strength emulsion concentrate and introduced to the spray liquor with the amount of solvent system used for applying the active compound. In the examples, the solvent used was water.\n(§3) The test period extended over 21 days. During this time, the plants were tended, and their response to the treatments with active compound was evaluated.\n(§4) The evaluation for the damage caused by the chemical compositions was carried out using a scale from 0 to 100%, compared to the untreated control plants. Here, 0 means no damage and 100 means complete destruction of the plants.\n(§5) In the examples below, the value E which is to be expected if the activity of the individual compounds is just additive was calculated using the method of S. R. Colby (1967) “Calculating synergistic and antagonistic responses of herbicide combinations”, Weeds 15, p. 22 ff. E=X+Y−([…]) where • X=effect in percent using active compound A at an application rate a; • Y=effect in percent using active compound B at an application rate b; • E=expected effect (in %) of A+B at application rates a+b.\n(§6) If the observed effect is higher than the value E calculated according to Colby, a synergistic effect is present."}, "AMARE": {"tested_on": "AMARE", "assay": "Greenhouse post-emergence herbicidal action against AMARE", "format": "in vivo, Amaranthus retroflexus", "from_the_text": "as §1, §2, §3, §4, §5, §6"}, "ALOMY": {"tested_on": "ALOMY", "assay": "Greenhouse post-emergence herbicidal action against ALOMY", "format": "in vivo, Alopecurus myosuroides", "settings": "21 days", "from_the_text": "as §1, §2, §3, §4, §5, §6"}, "POLPE": {"tested_on": "POLPE", "assay": "Greenhouse post-emergence herbicidal action against POLPE", "format": "in vivo, Polygonum persicaria", "settings": "21 days", "from_the_text": "as §1, §2, §3, §4, §5, §6"}, "BRAPL": {"tested_on": "BRAPL", "assay": "Greenhouse post-emergence herbicidal action against BRAPL", "format": "in vivo, Brachiaria plantaginea", "from_the_text": "as §1, §2, §3, §4, §5, §6"}, "ECHCG": {"tested_on": "ECHCG", "assay": "Greenhouse post-emergence herbicidal action against ECHCG", "format": "in vivo, Echinochloa crus-galli", "from_the_text": "as §1, §2, §3, §4, §5, §6"}, "POAPR": {"tested_on": "POAPR", "assay": "Pre-emergence herbicidal action against POAPR", "format": "in vivo, Poa pratensis", "settings": "21 days", "description": "as §4\n(§7) In the examples below, the mixtures were applied by the pre-emergence method. To this end, the test plants were initially sown and covered with a thin layer of soil. Afterward (i.e. prior to the germination of the test plants), the mixtures according to the invention were sprayed onto the soil as an aqueous spray liquor at the stated application rate. As in the post-emergence method described above, the test period was 21 days. The damage was then evaluated as described above using a scale from 0 to 100% damage in comparison to untreated control plants (0% damage).\n(§8) A safener action is present if the damage to the crop plant caused by using a mixture according to the invention which contains a safener C) is less than the damage caused when active compound A or active compounds A and B are used without safener."}, "TRFPR": {"tested_on": "TRFPR", "assay": "Pre-emergence herbicidal action against TRFPR", "format": "in vivo, Trifolium pratense", "settings": "21 days", "description": "as §4, §7, §8"}, "TRZAW": {"tested_on": "TRZAW", "assay": "Pre-emergence safener action (crop damage) in TRZAW", "format": "in vivo, Triticum aestivum (Winter wheat)", "settings": "21 days", "description": "as §4, §7, §8"}, "ABUTH": {"tested_on": "ABUTH", "assay": "Greenhouse post-emergence herbicidal action against ABUTH", "format": "in vivo, Abutilon theophrasti", "from_the_text": "as §1, §2, §3, §4, §5, §6"}, "COMBE": {"tested_on": "COMBE", "assay": "Greenhouse post-emergence herbicidal action against COMBE", "format": "in vivo, Commelina benghalensis", "from_the_text": "as §1, §2, §3, §4, §5, §6"}, "GALAP": {"tested_on": "GALAP", "assay": "Greenhouse post-emergence herbicidal action against GALAP", "format": "in vivo, Galium aparine", "from_the_text": "as §1, §2, §3, §4, §5, §6"}, "SETFA": {"tested_on": "SETFA", "assay": "Greenhouse post-emergence herbicidal action against SETFA", "format": "in vivo, Setaria faberii", "from_the_text": "as §1, §2, §3, §4, §5, §6"}, "[1]": {"settings": "I.1 0.49 g/ha and/or b14.1 7.81 g/ha"}, "[2]": {"settings": "I.1 0.98 g/ha and/or b14.1 15.63 g/ha"}, "[3]": {"settings": "I.8 200 g/ha and/or c.1 200 g/ha"}, "[4]": {"settings": "I.8 400 g/ha and/or c.1 400 g/ha"}, "[5]": {"settings": "I.14 0.49 g/ha and/or b13.3 62.5 g/ha"}, "[6]": {"settings": "I.14 0.98 g/ha and/or b13.3 125 g/ha"}, "[7]": {"settings": "I.14 0.49 g/ha and/or b10.3 62.5 g/ha"}, "[8]": {"settings": "I.14 0.49 g/ha and/or b10.3 + c.2 62.5 + 3.13 g/ha"}, "[9]": {"settings": "I.14 0.49 g/ha and/or b11.1 62.5 g/ha"}, "[10]": {"settings": "I.14 0.98 g/ha and/or b10.3 125 g/ha"}, "[11]": {"settings": "I.14 0.98 g/ha and/or b10.3 + c.2 125 + 6.25 g/ha"}, "[12]": {"settings": "I.14 0.98 g/ha and/or b11.1 125 g/ha"}}, "note": "Where a name gives a salt, the structure may show the parent alone."}
{"smiles": "C/C(=N\\NC(=O)Nc1cc(F)cc(F)c1)c1ncccc1C(=O)O", "note": "[b14.1, diflufenzopyr sodium salt, reference compound]", "values": [{"measurement": "Herbicidal action against BIDPI found", "setting": "BIDPI; [1]", "value": 20, "unit": "%"}, {"measurement": "Herbicidal action against BIDPI found", "setting": "BIDPI; [2]", "value": 30, "unit": "%"}, {"measurement": "Herbicidal action against AMARE found", "setting": "AMARE; [1]", "value": 0, "unit": "%"}, {"measurement": "Herbicidal action against AMARE found", "setting": "AMARE; [2]", "value": 0, "unit": "%"}]}
{"smiles": "CC(C)N(C)S(=O)(=O)NC(=O)c1cc(-n2c(=O)cc(C(F)(F)F)n(N)c2=O)c(F)cc1Cl", "note": "[I.8]", "values": [{"measurement": "Herbicidal action against ALOMY found", "setting": "ALOMY; application rate g/ha: I.8 0.49, b2.1 7.81", "value": 5, "unit": "%"}, {"measurement": "Herbicidal action against ALOMY found", "setting": "ALOMY; application rate g/ha: I.8 0.98, b2.1 15.63", "value": 10, "unit": "%"}, {"measurement": "Herbicidal action against BIDPI found", "setting": "BIDPI; 21 days, application rate g/ha: I.8 0.49, b2.2 7.81", "value": 10, "unit": "%"}, {"measurement": "Herbicidal action against BIDPI found", "setting": "BIDPI; 21 days, application rate g/ha: I.8 0.98, b2.2 15.63", "value": 20, "unit": "%"}, {"measurement": "Herbicidal action against POLPE found", "setting": "POLPE; application rate g/ha: I.8 0.98, b5.1 7.81", "value": 10, "unit": "%"}, {"measurement": "Herbicidal action against POLPE found", "setting": "POLPE; application rate g/ha: I.8 1.95, b5.1 15.63", "value": 20, "unit": "%"}, {"measurement": "Herbicidal action against BRAPL found", "setting": "BRAPL; 21 days, application rate g/ha: I.8 0.98, b5.1 7.81", "value": 30, "unit": "%"}, {"measurement": "Herbicidal action against BRAPL found", "setting": "BRAPL; 21 days, application rate g/ha: I.8 1.95, b5.1 15.63", "value": 40, "unit": "%"}, {"measurement": "Herbicidal action against ECHCG found", "setting": "ECHCG; 21 days, application rate g/ha: I.8 1.95, b5.2 31.25", "value": 20, "unit": "%"}, {"measurement": "Herbicidal action against ECHCG found", "setting": "ECHCG; 21 days, application rate g/ha: I.8 3.91, b5.2 62.5", "value": 40, "unit": "%"}, {"measurement": "Herbicidal action against POAPR", "setting": "POAPR; [3]", "value": 98, "unit": "%"}, {"measurement": "Herbicidal action against POAPR", "setting": "POAPR; [4]", "value": 100, "unit": "%"}, {"measurement": "Herbicidal action against TRFPR", "setting": "TRFPR; [3]", "value": 100, "unit": "%"}, {"measurement": "Herbicidal action against TRFPR", "setting": "TRFPR; [4]", "value": 100, "unit": "%"}, {"measurement": "Damage to crop plant TRZAW", "setting": "TRZAW; [3]", "value": 30, "unit": "%"}, {"measurement": "Damage to crop plant TRZAW", "setting": "TRZAW; [4]", "value": 65, "unit": "%"}]}
{"smiles": "CC(C)CN(C)S(=O)(=O)NC(=O)c1cc(-n2c(=O)cc(C(F)(F)F)n(N)c2=O)c(F)cc1Cl", "note": "[I.14]", "values": [{"measurement": "Herbicidal action against ALOMY found", "setting": "ALOMY; application rate g/ha: I.14 0.49, b2.3 0.98", "value": 0, "unit": "%"}, {"measurement": "Herbicidal action against ALOMY found", "setting": "ALOMY; application rate g/ha: I.14 0.98, b2.3 1.95", "value": 0, "unit": "%"}, {"measurement": "Herbicidal action against BIDPI found", "setting": "BIDPI; 21 days, application rate g/ha: I.14 1.95, b10.2 250", "value": 40, "unit": "%"}, {"measurement": "Herbicidal action against BIDPI found", "setting": "BIDPI; 21 days, application rate g/ha: I.14 3.91, b10.2 500", "value": 85, "unit": "%"}, {"measurement": "Herbicidal action against BRAPL found", "setting": "BRAPL; 21 days, application rate g/ha: I.14 0.49, b2.3 0.98", "value": 0, "unit": "%"}, {"measurement": "Herbicidal action against BRAPL found", "setting": "BRAPL; 21 days, application rate g/ha: I.14 0.98, b2.3 1.95", "value": 0, "unit": "%"}, {"measurement": "Herbicidal action against BRAPL found", "setting": "BRAPL; [5]", "value": 10, "unit": "%"}, {"measurement": "Herbicidal action against BRAPL found", "setting": "BRAPL; [6]", "value": 15, "unit": "%"}, {"measurement": "Herbicidal action against ECHCG found", "setting": "ECHCG; I.14 1.95 g/ha and/or b13.2 125 g/ha", "value": 40, "unit": "%"}, {"measurement": "Herbicidal action against ECHCG found", "setting": "ECHCG; I.14 3.91 g/ha and/or b13.2 250 g/ha", "value": 70, "unit": "%"}, {"measurement": "Herbicidal action against ABUTH found", "setting": "ABUTH; [5]", "value": 0, "unit": "%"}, {"measurement": "Herbicidal action against ABUTH found", "setting": "ABUTH; [6]", "value": 20, "unit": "%"}, {"measurement": "Herbicidal action against COMBE found", "setting": "COMBE; I.14 1.95 g/ha and/or b.15.1 125 g/ha", "value": 0, "unit": "%"}, {"measurement": "Herbicidal action against COMBE found", "setting": "COMBE; I.14 3.91 g/ha and/or b.15.1 250 g/ha", "value": 40, "unit": "%"}, {"measurement": "Herbicidal action against GALAP found", "setting": "GALAP; [7]", "value": 0, "unit": "%"}, {"measurement": "Herbicidal action against GALAP found", "setting": "GALAP; [8]", "value": 0, "unit": "%"}, {"measurement": "Herbicidal action against GALAP found", "setting": "GALAP; [9]", "value": 0, "unit": "%"}, {"measurement": "Herbicidal action against GALAP found", "setting": "GALAP; [10]", "value": 25, "unit": "%"}, {"measurement": "Herbicidal action against GALAP found", "setting": "GALAP; [11]", "value": 25, "unit": "%"}, {"measurement": "Herbicidal action against GALAP found", "setting": "GALAP; [12]", "value": 25, "unit": "%"}, {"measurement": "Herbicidal action against SETFA found", "setting": "SETFA; [7]", "value": 20, "unit": "%"}, {"measurement": "Herbicidal action against SETFA found", "setting": "SETFA; [8]", "value": 20, "unit": "%"}, {"measurement": "Herbicidal action against SETFA found", "setting": "SETFA; [9]", "value": 20, "unit": "%"}, {"measurement": "Herbicidal action against SETFA found", "setting": "SETFA; [10]", "value": 25, "unit": "%"}, {"measurement": "Herbicidal action against SETFA found", "setting": "SETFA; [11]", "value": 25, "unit": "%"}, {"measurement": "Herbicidal action against SETFA found", "setting": "SETFA; [12]", "value": 25, "unit": "%"}]}
